Entries after “also recorded” stand apart in the source; their conditions may differ.
Legend:
[1] = tested on: A549 (human lung cancer cell); test: MTS cell proliferation test, A549 (Embodiment 8); format: cell-based
Experimental: (§1) Respectively, the S medicine test solution was prepared by dissolving the ((S,S,S) cis,cis-spiro[4,4]nonane-1,6-diamine)oxalatoplatinum(II) complex (compound 2; hereinafter, it is described as S medicine) into the dimethylsulfoxide (DMSO) with the concentration of 10 mg/ml and the R medicine test solution was prepared by dissolving the ((R,R,R)cis,cis-spiro[4,4]nonane-1,6-diamine) oxalatoplatinum(II) complex (compound 3; hereinafter, it is described as R medicine) into the dimethylsulfoxide (DMSO) with the concentration of 10 mg/ml.
(§2) The test was performed by using A549 (human lung cancer cell), LU65A (human lung cancer cell), RERF-LC-MA (human lung cancer cell), LU99 (human lung cancer cell), H460 (human lung cancer cell), HCT116 (human colon cancer cell), HT-29 (human colon cancer cell), MKN-45 (human gastric cancer cell), MKN-1 (human gastric cancer cell), U937 (human lymphoma cell), KP-1N (human pancreas cancer cell) and B2452 (human mesotheliama cell) as the cancer cell.
(§3) These cells were suspended in the each culture medium that the serum of 10% was added, and were dispensed in 96-well plate. And then, these were cultured in 5% CO2 at 37 degrees centigrade during a night. Next day, the S medicine test solution and the R medicine test solution were prepared in the culture medium to the various concentrations (5, 10, 20 μg/ml), and were dispensed into the plates that the cells were set preliminarily. And further, these were cultured in 5% CO2 at 37 degrees centigrade for three days.
(§4) The cell proliferation after the medicine addition was measured on the 3rd day from the 1st day after the medicine addition by the MTS method (kit for cell proliferation test manufactured by Promega Company).
(§5) The inhibition rate (%) of the cell proliferation was obtained from the measured MTS value by the following formula. Inhibition rate(%)=(1-MTS value of medicine addition group/MTS value of medicine non-addition group)×100
(§6) Because the value which was obtained by the above-mentioned formula represents the inhibition rate of the cell proliferation, the higher the numerical value is, the higher the medicine effect is. It is desired that the one whose value is 50% or more has the medicine effect.

[2] = tested on: LU65A (human lung cancer cell); test: MTS cell proliferation test, LU65A (Embodiment 8); format: cell-based
Experimental: as §1, §2, §3, §4, §5, §6

[3] = tested on: RERF-LC-MA (human lung cancer cell); test: MTS cell proliferation test, RERF-LC-MA (Embodiment 8); format: cell-based
Experimental: as §1, §2, §3, §4, §5, §6

[4] = tested on: LU99 (human lung cancer cell); test: MTS cell proliferation test, LU99 (Embodiment 8); format: cell-based
Experimental: as §1, §2, §3, §4, §5, §6

[5] = tested on: H460 (human lung cancer cell); test: MTS cell proliferation test, H460 (Embodiment 8); format: cell-based
Experimental: as §1, §2, §3, §4, §5, §6

[6] = tested on: HCT116 (human colon cancer cell); test: MTS cell proliferation test, HCT116 (Embodiment 8); format: cell-based
Experimental: as §1, §2, §3, §4, §5, §6

[7] = tested on: HT-29 (human colon cancer cell); test: MTS cell proliferation test, HT-29 (Embodiment 8); format: cell-based
Experimental: as §1, §2, §3, §4, §5, §6

[8] = tested on: MKN-45 (human gastric cancer cell); test: MTS cell proliferation test, MKN-45 (Embodiment 8); format: cell-based
Experimental: as §1, §2, §3, §4, §5, §6

[9] = tested on: MKN-1 (human gastric cancer cell); test: MTS cell proliferation test, MKN-1 (Embodiment 8); format: cell-based
Experimental: as §1, §2, §3, §4, §5, §6

[10] = tested on: U937 (human lymphoma cell); test: MTS cell proliferation test, U937 (Embodiment 8); format: cell-based
Experimental: as §1, §2, §3, §4, §5, §6

[11] = tested on: KP-1N (human pancreas cancer cell); test: MTS cell proliferation test, KP-1N (Embodiment 8); format: cell-based
Experimental: as §1, §2, §3, §4, §5, §6

[12] = tested on: H2452 cell (human mesothelicana cell); test: MTS cell proliferation test, H2452 (Embodiment 8); format: cell-based
Experimental: as §1, §2, §3, §4, §5, §6

[13] = tested on: tumor cells; test: MTS cell proliferation test, all cancer cells of Embodiment 8; format: cell-based, human; details: summary of Table 2 in words
Experimental: as §1
as §2, with “cell. […]” for “cell.”
as §4
The inhibition rate (%) of the cell proliferation was obtained from the measured MTS value by the following formula. […]

[14] = tested on: U937 (human lymphoma cell); test: MTS cell proliferation test, U937 (Embodiment 7); format: cell-based; details: for medicine effect in the cancer cell (U937): summary of Table 1 in words
Experimental: The test solution was prepared by dissolving the (compound 1) into the dimethylsulfoxide ([…]) with the concentration of 8 mg/ml.
The test was performed by using the U937 (human lymphoma cell) as the cancer cell and using the HEK293 (human fetus kidney cell) as the normal cell.
These cells were suspended in the each culture medium that the serum of 10% was added, and were dispensed in 96-well plate. And then, these were cultured in 5% CO2 at 37 degrees centigrade during a night. Next day, the test solution was prepared in the culture medium to the various concentrations (0, 4, 8, 16 μg/ml), and was dispensed into the plate that the cells were set preliminarily. And further, these were cultured in 5% CO2 at 37 degrees centigrade for three days.
The cell proliferation after the medicine addition was measured on the 3rd day from the 1st day after the medicine addition by the […] (Kit for cell proliferation test manufactured by Promega Company).
as §5
Because the value which was obtained by the above-mentioned formula represents the inhibition rate of the cell proliferation, the higher the numerionl value is, the higher the medicine effect is. It is deemed that the one whose value is 50% or more has the medicine effect.

SMILES | Inhibition rate of cell proliferation after 3 days from medicine addition (%) ([1]; A549, 10 μg/ml) | Inhibition rate of cell proliferation after 3 days from medicine addition (%) ([1]; A549, 20 μg/ml) | Inhibition rate of cell proliferation after 3 days from medicine addition (%) ([2]; 10 μg/ml) | Inhibition rate of cell proliferation after 3 days from medicine addition (%) ([2]; 20 μg/ml) | Inhibition rate of cell proliferation after 3 days from medicine addition (%) ([3]; 10 μg/ml) | Inhibition rate of cell proliferation after 3 days from medicine addition (%) ([3]; 20 μg/ml) | Inhibition rate of cell proliferation after 3 days from medicine addition (%) ([4]; LU99, 10 μg/ml) | Inhibition rate of cell proliferation after 3 days from medicine addition (%) ([4]; LU99, 20 μg/ml) | Inhibition rate of cell proliferation after 3 days from medicine addition (%) ([5]; H460, 10 μg/ml) | Inhibition rate of cell proliferation after 3 days from medicine addition (%) ([5]; H460, 20 μg/ml) | Inhibition rate of cell proliferation after 3 days from medicine addition (%) ([6]; HCT116, 10 μg/ml) | Inhibition rate of cell proliferation after 3 days from medicine addition (%) ([6]; HCT116, 20 μg/ml) | Inhibition rate of cell proliferation after 3 days from medicine addition (%) ([7]; HT-29, 10 μg/ml) | Inhibition rate of cell proliferation after 3 days from medicine addition (%) ([7]; HT-29, 20 μg/ml) | Inhibition rate of cell proliferation after 3 days from medicine addition (%) ([8]; MKN-45, 10 μg/ml) | Inhibition rate of cell proliferation after 3 days from medicine addition (%) ([8]; MKN-45, 20 μg/ml) | Inhibition rate of cell proliferation after 3 days from medicine addition (%) ([9]; MKN-1, 10 μg/ml) | Inhibition rate of cell proliferation after 3 days from medicine addition (%) ([9]; MKN-1, 20 μg/ml) | Inhibition rate of cell proliferation after 3 days from medicine addition (%) ([10]; U937, 10 μg/ml) | Inhibition rate of cell proliferation after 3 days from medicine addition (%) ([10]; U937, 20 μg/ml) | also measured
NC1CCCC12CCCC2N.O=C1[O][Pt][O]C1=O [R medicine, ((R,R,R)cis,cis-spiro[4,4]nonane-1,6-diamine) oxalatoplatinum(II) complex] | ◯ (◯: 51~75%) | ◯ (◯: 51~75%) | ⊚ (⊚: 76~100%) | ⊚ (⊚: 76~100%) | ◯ (◯: 51~75%) | ◯ (◯: 51~75%) | ⊚ (⊚: 76~100%) | ⊚ (⊚: 76~100%) | ⊚ (⊚: 76~100%) | ⊚ (⊚: 76~100%) | ⊚ (⊚: 76~100%) | ⊚ (⊚: 76~100%) | ◯ (◯: 51~75%) | ⊚ (⊚: 76~100%) | ⊚ (⊚: 76~100%) | ⊚ (⊚: 76~100%) | ⊚ (⊚: 76~100%) | ⊚ (⊚: 76~100%) | ⊚ (⊚: 76~100%) | ⊚ (⊚: 76~100%) | Inhibition rate of cell proliferation after 3 days from medicine addition (%) ([1]; A549, 5 μg/ml): Δ (Δ: 26~50%); Inhibition rate of cell proliferation after 3 days from medicine addition (%) ([2]; 5 μg/ml): ⊚ (⊚: 76~100%); Inhibition rate of cell proliferation after 3 days from medicine addition (%) ([3]; 5 μg/ml): Δ (Δ: 26~50%); Inhibition rate of cell proliferation after 3 days from medicine addition (%) ([4]; LU99, 5 μg/ml): ⊚ (⊚: 76~100%); Inhibition rate of cell proliferation after 3 days from medicine addition (%) ([5]; H460, 5 μg/ml): ◯ (◯: 51~75%); Inhibition rate of cell proliferation after 3 days from medicine addition (%) ([6]; HCT116, 5 μg/ml): ◯ (◯: 51~75%); Inhibition rate of cell proliferation after 3 days from medicine addition (%) ([7]; HT-29, 5 μg/ml): ◯ (◯: 51~75%); Inhibition rate of cell proliferation after 3 days from medicine addition (%) ([8]; MKN-45, 5 μg/ml): ⊚ (⊚: 76~100%); Inhibition rate of cell proliferation after 3 days from medicine addition (%) ([9]; MKN-1, 5 μg/ml): ⊚ (⊚: 76~100%); Inhibition rate of cell proliferation after 3 days from medicine addition (%) ([10]; U937, 5 μg/ml): ⊚ (⊚: 76~100%); Inhibition rate of cell proliferation after 3 days from medicine addition (%) ([11]; 5 μg/ml): ◯ (◯: 51~75%); Inhibition rate of cell proliferation after 3 days from medicine addition (%) ([11]; 10 μg/ml): ⊚ (⊚: 76~100%); Inhibition rate of cell proliferation after 3 days from medicine addition (%) ([11]; 20 μg/ml): ⊚ (⊚: 76~100%); Inhibition rate of cell proliferation after 3 days from medicine addition (%) ([12]; H2452, 5 μg/ml): Δ (Δ: 26~50%); Inhibition rate of cell proliferation after 3 days from medicine addition (%) ([12]; H2452, 10 μg/ml): ◯ (◯: 51~75%); Inhibition rate of cell proliferation after 3 days from medicine addition (%) ([12]; H2452, 20 μg/ml): ◯ (◯: 51~75%); medicine effect for the many tumor cells [13]: high medicine effect compared with the oxaliplatin; also recorded: higher in the effect
O=C1[O][Pt]2([NH][C@H]3CCCC34CCC[C@@H]4[NH]2)[O]C1=O (stereo partly drawn) [compound 1, (cis,cis-spiro[4,4]nonane-1,6-diamine) oxalatoplatinum(II) complex] |  |  |  |  |  |  |  |  |  |  |  |  |  |  |  |  |  |  |  |  | medicine effect in the cancer cell (U937) [14]: remarkable medicine effect
O=C1[O][Pt]2([NH][C@@H]3CCCC[C@H]3[NH]2)[O]C1=O [oxaliplatin, reference compound] | X (X: 0~25%) | Δ (Δ: 26~50%) | Δ (Δ: 26~50%) | ◯ (◯: 51~75%) | X (X: 0~25%) | X (X: 0~25%) | ◯ (◯: 51~75%) | ◯ (◯: 51~75%) | Δ (Δ: 26~50%) | Δ (Δ: 26~50%) | ◯ (◯: 51~75%) | ◯ (◯: 51~75%) | Δ (Δ: 26~50%) | Δ (Δ: 26~50%) | ⊚ (⊚: 76~100%) | ⊚ (⊚: 76~100%) | ◯ (◯: 51~75%) | ⊚ (⊚: 76~100%) | ⊚ (⊚: 76~100%) | ⊚ (⊚: 76~100%) | Inhibition rate of cell proliferation for 1st to 3rd day from medicine addition (%) ([14]; U937, 4 μg/ml, 1st day): −5%; Inhibition rate of cell proliferation for 1st to 3rd day from medicine addition (%) ([14]; U937, 4 μg/ml, 2nd day): −26%; Inhibition rate of cell proliferation for 1st to 3rd day from medicine addition (%) ([14]; U937, 4 μg/ml, 3rd day): 12%; Inhibition rate of cell proliferation for 1st to 3rd day from medicine addition (%) ([14]; U937, 8 μg/ml, 1st day): −1%; Inhibition rate of cell proliferation for 1st to 3rd day from medicine addition (%) ([14]; U937, 8 μg/ml, 2nd day): −5%; Inhibition rate of cell proliferation for 1st to 3rd day from medicine addition (%) ([14]; U937, 8 μg/ml, 3rd day): 37%; Inhibition rate of cell proliferation for 1st to 3rd day from medicine addition (%) ([14]; U937, 16 μg/ml, 1st day): 0%; Inhibition rate of cell proliferation for 1st to 3rd day from medicine addition (%) ([14]; U937, 16 μg/ml, 2nd day): 30%; Inhibition rate of cell proliferation for 1st to 3rd day from medicine addition (%) ([14]; U937, 16 μg/ml, 3rd day): 73%; medicine effect in the cancer cell (U937) [14]: medicine effect was also recognized; Inhibition rate of cell proliferation after 3 days from medicine addition (%) ([11]; 10 μg/ml): Δ (Δ: 26~50%); Inhibition rate of cell proliferation after 3 days from medicine addition (%) ([11]; 20 μg/ml): ◯ (◯: 51~75%); Inhibition rate of cell proliferation after 3 days from medicine addition (%) ([12]; H2452, 10 μg/ml): Δ (Δ: 26~50%); Inhibition rate of cell proliferation after 3 days from medicine addition (%) ([12]; H2452, 20 μg/ml): Δ (Δ: 26~50%)
